Results taken from patent US20230226070A1, “TREATMENT OF THROMBOSIS AND ASSOCIATED DISORDERS WITH AN ANTI-PLATELET AGENT” (THE HEART RESEARCH INSTITUTE LTD, priority 2020, published 2023).
Entries after “also recorded” stand apart in the source; their conditions may differ. Where a SMILES comes first, the peptide text is derived from it. Bridges are numbered along the chain shown (N, C = ends). [ ]: non-standard residue; d: D form. hArg = N=C(N)NCCCC[C@H](N)C(=O)O; Mpa = O=C(O)CCS

Key:
[1] = system: ischaemic stroke after carotid artery thrombotic occlusion and contralateral stenosis; type: in vivo
mouse blood/platelets = test: ADP-induced aggregation in PPACK-anticoagulated PRP (Integrilin dose-response); type: cell-based
Excerpt: Data are presented as mean±SEM.

tail bleeding = test: 3 mm tail lop (tail transection) bleeding assay
Procedure: Bleeding was assessed using a 3 mm tail lop assay. Drug treatments (bolus) were administered 10 min before the start of tail bleeding. When a 30 min infusion was used, the tail bleeding experiment began as soon as the infusion finished. Following drug administration, a 3 mm long section of the tail tip was removed using a scalpel blade and the tail tip immersed in warmed saline. Bleeding was monitored until cessation and the time recorded. […] If the tail did re-bleed, length of time of rebleeding was also recorded. The experiment was ended when bleeding had ceased for at least 2 min, or at 30 min post-tail tip removal. Haemoglobin was quantified using 2 methods [(i, ii) using Abs 575 nm; (iii) using a colorimetric haemoglobin assay, as per the manufacturer's instructions (Sigma Aldrich, Haemoglobin Assay Kit MAK115)]. The treatment dosing regimens were as follows: rtPA (10 mg/kg: 1 mg/kg bolus, 9 mg/kg infusion over 30 min); Integrilin (1-10 mg/kg, bolus every 15 minutes); TGX221 (2.5 mg/kg; single bolus 15 minutes prior to lop); Arg—argatroban (80 ug/kg bolus; 40 ug/kg/min infusion 60). […] Data are presented as mean±SEM.
In addition, 15 minutes following commencement of treatment administration, tail transection (3 mm) was performed, and the tail tip immersed in warm (37° C.) saline to allow for blood collection from the tail (as described under “Methods”). Flow of blood was assessed over 30 minutes and any periods of blood flow cessation and rebleeding noted. Blood monitoring and collection was ceased at 30 minutes after lop, for all mice. Haemoglobin content was assessed in the collected sample using a colorimetric haemoglobin assay, as per the manufacturer's instructions (Sigma Aldrich, Haemoglobin Assay Kit MAK115). Data was analysed using a one-way ANOVA relative to Vehicle. […] The bar graph depicts mean±SD, where ***P<0.0005, ^nsP>0.05.

[2] = system: occlusive thrombus in the mouse carotid artery; test: carotid artery thrombosis model: occlusive thrombus formation induced by electrolytic injury, recanalisation classified from carotid blood flow; type: in vivo, C57BL/6 male mice; details: for thrombolysis, recanalisation and vessel reocclusion (in words): dual therapy: antiplatelet agent 2.5 mg/kg together with rtPA 10 mg/kg; for comparative anti-platelet efficacy in vivo, TGX221 versus AZD6482: each 2.5 mg/kg combined with rtPA 10 mg/kg; for lysis of 4.5 hours aged clots (in words): treatment 270 min after occlusion, triple therapy versus rtPA/argatroban dual therapy; for recanalisation of older (aged) clots (in words): triple therapy: rtPA + argatroban + antiplatelet agent (2.5 mg/kg, 2x bolus), treatment 15, 120 or 270 min after occlusion

Compound: N=C(N)NCCCC[C@@H]1NC(=O)CCSSC[C@@H](C(N)=O)NC(=O)[C@@H]2CCCN2C(=O)[C@H](Cc2c[nH]c3ccccc23)NC(=O)[C@H](CC(=O)O)NC(=O)CNC1=O [Integrilin, Eptifibatide, reference compound] ([Mpa][hArg]GDWPC-NH2; disulfide 1-7)
- stable recanalisation of the occluded carotid artery (in words) ([1]; integrilin 4 mg/kg every 15 min with rtPA 10 mg/kg and argatroban): enhances stable recanalisation
- inhibition of ADP-induced aggregation (mouse blood/platelets; 3.0 mg/kg ('Stroke' dose)): approximately 60%
- inhibition of ADP-induced aggregation (mouse blood/platelets; 4.0 mg/kg ('AMI' dose)): ~80%
- tail bleeding / safety (in words) (tail bleeding; triple therapy with rt-PA 10 mg/kg and argatroban): accompanied by an increase in bleeding

Compound: Cc1cc([C@@H](C)Nc2ccccc2C(=O)O)c2nc(N3CCOCC3)cc(=O)n2c1 [AZD6482, (−)-2-({1R-[7-methyl-2-(morpholin-4-yl)-4-oxo-pyrido[1,2-a]pyrimidin-9-yl]ethyl}amino)benzoic acid]
- thrombolysis, recanalisation and vessel reocclusion (in words) ([2]; 15 min after occlusion): improves thrombolysis and vessel reocclusion over and above that achieved with rtPA alone; also recorded: effectively enhancing recanalisation
- comparative anti-platelet efficacy in vivo, TGX221 versus AZD6482 [2]: equipotent
- lysis of 4.5 hours aged clots (in words) [2]: benefit
- recanalisation of older (aged) clots (in words) [2]: improving recanalization of older clots

Compound: rtPA: recombinant tissue plasminogen activator, thrombolytic agent, purchased from Boehringer Ingelheim
- recanalisation category / re-thrombosis (in words) ([2]; rt-PA monotherapy 10 mg/kg, 15 min after occlusion, 60 min monitoring): induces transient recanalisation
- clot lysis and recanalisation of the carotid, share of vessels ([2]; rtPA 10 mg/kg i.v. alone, 15 min after occlusion, blood flow monitored 60 min): approximately 25%

Compound: Cc1cc(C(C)Nc2ccccc2)c2nc(N3CCOCC3)cc(=O)n2c1 (racemic) [TGX221, (±)-7-methyl-2-morpholin-4-yl-9-(1-phenylaminoethyl)-pyrido[1,2-a]pyrimidin-4-one]
- thrombolysis, recanalisation and vessel reocclusion (in words) ([2]; 15 min after occlusion): improves thrombolysis and vessel reocclusion over and above that achieved with rtPA alone; also recorded: effectively enhancing recanalisation
- comparative anti-platelet efficacy in vivo, TGX221 versus AZD6482 [2]: equipotent
- lysis of 4.5 hours aged clots (in words) [2]: benefit
- recanalisation and reocclusion (in words) ([2]; triple therapy: TGX221 2.5 mg/kg + argatroban + rtPA 10 mg/kg, 15 min after occlusion): improving recanalisation as well as reducing reocclusion
- recanalisation of older (aged) clots (in words) [2]: improving recanalization of older clots
- vessel (carotid) recanalisation (in words) ([1]; triple therapy: TGX221 2.5 mg/kg + argatroban + rtPA 10 mg/kg, 5 min after stroke onset): improved blood flow (recanalisation)
- cerebral perfusion (in words) ([1]; triple therapy: TGX221 + argatroban + rtPA): improved cerebral reperfusion
- cerebral infarct (TTC staining, in words) ([1]; triple therapy: TGX221 + argatroban + rtPA, 24 hours): reduced cerebral infarct
- tail bleeding (in words) (tail bleeding; administered alone (TGX221 2.5 mg/kg; Integrilin 3 mg/kg and above)): does not Increase Tail Bleeding
- tail bleeding (in words) (tail bleeding; in combination with rt-PA (10 mg/kg; for TGX221 also up to 20 mg/kg)): promising bleeding profile
